Tested on: Mus musculus
Assay: Compound was evaluated for its lethal dose (LD50) by dissolving in 5 microL of isotonic saline and injected intracranially in mice which resulted in the death of 50% of the treated animals within 1 hour
Type: ADME, organism-based
Conditions: in vivo, other

SMILES	LD50
CC1=NCCc2cc(O)c(O)cc21	31.1 µg
CC1=NCCc2c1cc(O)c(O)c2O	38.9 µg
